{"source": "patent US9308244B2", "about": "“Combination therapy using active immunotherapy” (immatics Biotechnologies GmbH, priority 2007, dated 2016)", "key": {"[1]": {"tested_on": "OVA-001 specific CD8+ T-cells", "format": "in vivo, C57BL/6 mice", "conditions": "continuous treatment; for OVA-001 specific CD8+ T-cells, mean: OVA-001 immunized; for Immune response towards OVA-001 compared with vehicle treated controls (in words): both sorafenib dosages, high-dose (80 mg/kg bw) sunitinib, 80 mg/kg"}, "[2]": {"tested_on": "OVA-001 specific CD8+ T-cells", "format": "in vivo, C57BL/6 mice"}, "human CD8+ T-cells": {"tested_on": "human CD8+ T-cells", "assay": "Artificial APC (pMHC/anti-CD28 bead) priming and expansion of isolated human CD8+ T-cells, MLA-001 tetramer readout", "format": "cell-based", "conditions": "three stimulation cycles, high and low density pMHC, absence of natural antigen presenting cells"}, "[3]": {"tested_on": "primary clear cell renal cell carcinoma (ccRCC)", "assay": "mRNA expression in primary ccRCC tumor tissue of a patient treated with sorafenib before surgery", "format": "in vivo, human", "experimental": "mRNA expression was measured as described in 1.1 except that mRNA from 20 primary clear cell renal cell carcinoma (ccRCC) samples of patients not treated with TKIs and 1 locally recurring ccRCC tumor sample of a patient having received sorafenib treatment (800 mg Nexavar™ per day starting 35 days before and stopping 2 days before surgery) previous to surgery were included in this analysis.\nTumor tissue specimens were snap-frozen in liquid nitrogen immediately after surgery and later homogenized with mortar and pestle under liquid nitrogen. Total RNA was prepared from these samples using TRIzol (Invitrogen) or TRI Reagent (Fermentas) followed by a cleanup with RNeasy (QIAGEN); both methods were performed according to the manufacturers' protocols.\nGene expression analysis of the tumor samples was performed by Affymetrix Human Genome (HG) U133A or HG-U133 Plus 2.0 oligonucleotide microarrays (Affymetrix, Santa Clara, Calif., USA). A normal reference kidney sample was hybridized to both array types to achieve direct comparability of all samples.\nBriefly, double-stranded cDNA was synthesized from 5-8 μg of total RNA, using SuperScript RTII (Invitrogen) and the oligo-dT-T7 primer (MWG Biotech, Ebersberg, Germany) as described in the manual. […] Pairwise comparisons were calculated using the respective normal reference kidney array as baseline. […] Relative expression values were calculated from the signal log ratios given by the software and the normal kidney sample was arbitrarily set to 1.0."}, "C57BL/6 T cells": {"tested_on": "C57BL/6 T cells", "assay": "Mouse mixed lymphocyte reaction (CFSE-labeled C57BL/6 spleen cells vs irradiated BALB/c splenocytes)", "format": "cell-based", "conditions": "for Cell morphology in flow cytometry (putatively toxic effects): 13 μM sorafenib", "experimental": "CFSE-labeled spleen cells from C57BL/6 (H2-b) mice were co-cultured with irradiated splenocytes from BALB/c (H2-d) mice, resulting in the strong allogenic response and proliferation of the C57BL/6 T cells against H2-d MHC molecules. The proliferation of the T cells results in a diminished CFSE staining of the divided cells. Percentage of divided cells and their number of divisions can be analyzed by flow cytometry.\nSpleen cells were prepared from 1 C57BL/6 mouse and 1 BALB/c mouse (Harlan Winkelmann GmbH, Borchen, Germany). BALB/c cells were irradiated with 33 Gy. Effectors (C57BL/6) were adjusted to 20 Mio cells/ml. A 2 mM 5(6)-Carboxyfluorescindiacetate-N-succinimidylester (CFSE, Fluka, Buchs, Switzerland) solution in PBS was freshly prepared from a 10 mM DMSO stock solution. The cell suspension was mixed 1:1 with the CFSE solution. After incubation at 37° C. for 4 min, reaction was stopped by addition of fetal calf serum (Biochrom, Berlin, Germany), and free CFSE was washed out. 2×10^5 stimulator cells (BALB/c) were plated into cavities of a 96-well round-bottom plate. 1×10^5 or 2×10^5 CFSE-labeled effector cells and tyrosine kinase inhibitors at two different concentrations were added. Appropriate positive and negative controls were included. All cultures were in 200 μl T-cell medium with 0.1% (v/v) DMSO for 5 or 7 days without further medium change. Thereafter, cells were stained with fluorescently labelled anti-CD4-PerCP and anti-CD8-FITC antibodies (both BD Biosciences, Heidelberg, Germany) and analyzed by flow cytometry.\nThe experiment described above was repeated with the exception that a 96-well flat-bottom plate was used for mixed lymphocyte reactions (MLRs), a syngenic control with irradiated C57BL/6 cells was included, more concentrations of inhibitors were assessed, and all groups were analyzed in triplicates.\nDuring cultivation, half of the medium was replaced with fresh appropriate medium supplemented with final concentrations of tyrosine kinase inhibitors every day, and proliferation was analyzed at day 7 only. Additionally cells were stained for H2-Kb to clearly identify effector cells in a further dimension."}, "[4]": {"conditions": "RCC of one patient, 800 mg Nexavar per day from 35 to 2 days before surgery, normal kidney = 1.0"}, "[5]": {"conditions": "RCC of one patient, 800 mg Nexavar per day from 35 to 2 days before surgery, normal kidney = 1.0, listed as sorafenib"}}, "note": "“Also recorded” adds a separate entry of the source. Read-outs that look alike come from different tables or passages of the source.", "data": [{"smiles": "CNC(=O)c1cc(Oc2ccc(NC(=O)Nc3ccc(Cl)c(C(F)(F)F)c3)cc2)ccn1", "note": "[Sorafenib, 4-(4-{3-[4-Chloro-3-(trifluoromethyl)phenyl]ureido}phenoxy)-N-methylpyrid-ine-2-carboxamide]", "values": [{"measurement": "OVA-001 specific CD8+ T-cells, mean", "setting": "[1]; 15 mg/kg bw, n=4", "value": 0.72, "unit": "%"}, {"measurement": "OVA-001 specific CD8+ T-cells, mean", "setting": "[1]; 60 mg/kg bw, n=12", "value": 1.81, "unit": "%"}, {"measurement": "Immune response towards OVA-001 compared with vehicle treated controls (in words)", "setting": "[1]", "value": "reduced specific T-cell responses"}, {"measurement": "Immune response towards OVA-001 compared with vehicle treated controls (in words)", "setting": "[1]; listed as sorafenib", "value": "reduced immune response"}, {"measurement": "Reversibility of the immunosuppressive influence after discontinuation of treatment", "setting": "[2]; mouse, in vivo", "value": "rapidly reversed"}, {"measurement": "Numbers of OVA-001-specific T-cells", "setting": "[2]; treatment stopped 48 h before first immunization, 80 mg/kg bw sunitinib, both sorafenib dosages, differences not significant", "value": "Reduced numbers"}, {"measurement": "Priming and expansion of MLA-001 specific CD8+ T-cells (% tetramer+ among CD8+ lymphocytes, total number per well)", "setting": "human CD8+ T-cells", "value": "no concentration-dependent influence; also recorded: not altered"}, {"measurement": "Expression relative to normal reference kidney: ADFP", "setting": "[3]; [4]", "value": 5.7}, {"measurement": "Expression relative to normal reference kidney: APOL1", "setting": "[3]; [4]", "value": 19.7}, {"measurement": "Expression relative to normal reference kidney: CCND1", "setting": "[3]; [4]", "value": 3.2}, {"measurement": "Expression relative to normal reference kidney: GUCY1A3", "setting": "[3]; [4]", "value": 0.5}, {"measurement": "Expression relative to normal reference kidney: HLA-A", "setting": "[3]; [4]", "value": 0.9}, {"measurement": "Expression relative to normal reference kidney: HLA-B", "setting": "[3]; [4]", "value": 2.1}, {"measurement": "Expression relative to normal reference kidney: HLA-C", "setting": "[3]; [4]", "value": 1.0}, {"measurement": "Expression relative to normal reference kidney: HLA-DPB1", "setting": "[3]; [4]", "value": 4.0}, {"measurement": "Expression relative to normal reference kidney: HLA-DQB1", "setting": "[3]; [4]", "value": 168.9}, {"measurement": "Expression relative to normal reference kidney: HLA-DRB1", "setting": "[3]; [4]", "value": 2.8}, {"measurement": "Expression relative to normal reference kidney: KIAA0367", "setting": "[3]; [4]", "value": 1.2}, {"measurement": "Expression relative to normal reference kidney: MET", "setting": "[3]; [4]", "value": 9.8}, {"measurement": "Expression relative to normal reference kidney: MMP7", "setting": "[3]; [4]", "value": 6.1}, {"measurement": "Expression relative to normal reference kidney: MUC1", "setting": "[3]; [4]", "value": 0.3}, {"measurement": "Expression relative to normal reference kidney: PSMB8", "setting": "[3]; [4]", "value": 3.5}, {"measurement": "Expression relative to normal reference kidney: PSMB9", "setting": "[3]; [4]", "value": 5.7}, {"measurement": "Expression relative to normal reference kidney: RGS5", "setting": "[3]; [4]", "value": 1.5}, {"measurement": "Expression relative to normal reference kidney: TAP1", "setting": "[3]; [4]", "value": 2.1}, {"measurement": "Expression relative to normal reference kidney: GUCY1A3", "setting": "[3]; [5]", "value": "at the lower boundary of the range"}, {"measurement": "Expression relative to normal reference kidney: RGS5", "setting": "[3]; [5]", "value": "at the lower boundary of the range"}, {"measurement": "Expression profile of tumor associated antigens or their HLA presentation in vivo vs range of untreated ccRCC (in words)", "setting": "[3]; one sorafenib-treated patient vs 20 untreated ccRCC, range = mean ± one standard deviation", "value": "lie within this range for most antigens; also recorded: do not provide any evidence for a potential influence"}, {"measurement": "CD4+ T-cell proliferation in response to allogenic stimuli (summary)", "setting": "C57BL/6 T cells", "value": "increased"}, {"measurement": "CD8+ T-cell proliferation in response to allogenic stimuli (summary)", "setting": "C57BL/6 T cells", "value": "slightly decreased; also recorded: slightly reduced"}, {"measurement": "CD8 proliferation", "setting": "C57BL/6 T cells; first experiment, 1.3 μM sorafenib", "value": "only slightly affected"}, {"measurement": "Cell morphology in flow cytometry (putatively toxic effects)", "setting": "C57BL/6 T cells; first experiment", "value": "different morphology"}, {"measurement": "Cell morphology in flow cytometry (putatively toxic effects)", "setting": "C57BL/6 T cells; first experiment, listed as sorafenib", "value": "clear change in morphology"}, {"measurement": "Level inducing toxic effects (dramatically changed morphology of cells in flow cytometry)", "setting": "C57BL/6 T cells; second experiment", "value": "≥ 6.5", "unit": "μM"}, {"measurement": "Cell morphology (toxic effects of the drug)", "setting": "C57BL/6 T cells; second experiment, 6.5 or 13 μM Sorafenib", "value": "severe changes in morphology"}, {"measurement": "CD8+ proliferation", "setting": "C57BL/6 T cells; second experiment, day 7", "value": "slight decrease"}, {"measurement": "Proliferation of CD4+ cells", "setting": "C57BL/6 T cells; second experiment, day 7, 1.6 μM sorafenib", "value": "significant increase"}, {"measurement": "Drug-related toxicity for cells in mixed lymphocyte reactions (summary)", "setting": "C57BL/6 T cells; sorafenib: at concentration near the steady-state plasma level of treated patients", "value": "toxic"}]}]}
